PMC8100446, “Perillaldehyde Inhibition of cGAS Reduces dsDNA-Induced Interferon Response” (Frontiers in Immunology, 2021)

Molecular target: T1, cyclic GMP-AMP synthase (cGAS) (Homo sapiens, UniProt Q8N884)
T1 construct: purified recombinant full-length cGAS
Experiment: in vitro cGAS enzymatic assay, cGAMP production measured by HPLC-MS
Type: biochemical

T1 sequence (Q8N884 whole entry): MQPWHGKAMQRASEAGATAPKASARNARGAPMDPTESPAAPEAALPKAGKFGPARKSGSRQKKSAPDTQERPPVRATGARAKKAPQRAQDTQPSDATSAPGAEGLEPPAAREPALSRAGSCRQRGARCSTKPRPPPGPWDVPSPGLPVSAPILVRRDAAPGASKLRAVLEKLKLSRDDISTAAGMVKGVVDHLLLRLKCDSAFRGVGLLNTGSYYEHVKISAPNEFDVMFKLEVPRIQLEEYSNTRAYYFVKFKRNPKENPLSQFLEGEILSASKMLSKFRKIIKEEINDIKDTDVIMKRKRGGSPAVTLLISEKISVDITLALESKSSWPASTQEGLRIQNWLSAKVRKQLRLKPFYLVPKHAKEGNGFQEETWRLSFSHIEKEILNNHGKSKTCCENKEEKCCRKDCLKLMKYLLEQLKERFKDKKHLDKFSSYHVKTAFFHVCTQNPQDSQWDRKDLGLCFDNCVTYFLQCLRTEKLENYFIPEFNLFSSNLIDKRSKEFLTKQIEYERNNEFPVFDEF

C=C(C)C1CC=C(C=O)CC1 (stereo not shown) [PAH, perillaldehyde]
IC50: 31.3 µM
